Experimental data published in patent US20180133194A1, “METHOD OF TREATING INFLAMMATION USING NATURAL COMPOUNDS AND/OR DIET” (UNIVERSITY OF FLORIDA RESEARCH FOUNDATION, INCORPORATED, priority 2015, published 2018).

Experiments:
[1] = in vivo; cited from earlier work
[2] = cited from earlier work
hypoxic-ischemic injury = conditions: neonatal rat, cited from earlier work
inflammatory cytokines = assay: Cytokine array (RodentMAP) on plasma in paclitaxel-induced model of inflammation; format: in vivo, mice; conditions: compared to control; for macrophage-derived chemokine [MDC/CCL22] level: paclitaxel alone
Protocol: FIG. 1. Using a drug induced model of inflammation, a cytokine array was used to measure inflammatory cytokines, immune system alteration and the ability of our treatment to attenuate and re-establish normal status. Plasma was isolated from mice treated with the different treatments (control, paclitaxel [PTX, 40 mg/kg], NU.001[CS] and PTX+NU.001[PTX+CS]). * indicates p<0.05 and ** indicates p<0.01, one-way ANOVA or t-test, compared to control. # indicates p<0.05 and ## indicates p<0.01, one-way ANOVA or t-test, compared to PTX.
FIG. 2. NU.001 reduces inflammatory signals in a drug-induced model of inflammation. Animals received oral delivery of NU.001 for 3-4 weeks or a control diet. The microtubule stabilizing agent paclitaxel [40 mg/kg cumulative] was administered to induce inflammation. A cytokine array was used to measure inflammation and immune system status and assess the ability of NU.001 to attenuate or re-establish normal cytokine levels. Plasma was isolated from mice treated with the different treatments (control, paclitaxel, NU.001, and paclitaxel+NU.001). […] Treatment composition is as follows: [1] Control=55% carbohydrates, 30% proteins, 15% fat, [2]
FIGS. 4A-4B. NU.001 increases levels of Leukemia inhibitory factor [LIF] and CCL22. A. After being fed for 3-4 weeks with control diet or NU.001 diet, plasma was isolated for cytokine screening. […] LIF has been proposed to prevent or treat peripheral neuropathy. *, p <0.05, t-test.
The chemotherapeutic agent paclitaxel was used to induce inflammation. Animals were stressed by treating with paclitaxel [40 mg/kg cumulative], resulting in changes in a number of cytokines and related molecules involved in inflammation processes. Animals were treated with NU.001 for 3-4 weeks and blood was taken for plasma isolation. A panel of cytokines was screened using RodentMAP [Myriad/RBM].
Levels of Leukemia inhibitory factor (LIF) were compared in animals treated with control diet or NU.001 diets. After 4 weeks of treatment, blood was taken and plasma was isolated to measure levels of cytokines. […]

[3] = 500 mg/kg/day, divided dosage, 13 weeks, pre-fed dogs; cited from earlier work
[4] = oral doses as high as 500 mg/kg, rodents; cited from earlier work

Compound: C[S+]([O-])CCCCN=C=S (stereo not drawn) [SFN, sulforaphane]
- terminal elimination phase [1]: long
- time to peak plasma levels [1]: ≤ 2 h
- safety of dose ([2]; 100 mg SFN from oral intake of 68 grams of broccoli sprouts): safe non-toxic
- adverse effects of administration in humans ([2]; SFN or SFN-enriched dietary origin items such as broccoli sprouts): not demonstrated any significant adverse effects
- infarct ratio (hypoxic-ischemic injury; at 24 hours after hypoxic ischemia): reduced
- expression of Nrf2 antioxidative transcription factor in the brain (hypoxic-ischemic injury; hypoxic-ischemic injury): increased
- number of apoptotic cells (hypoxic-ischemic injury; hypoxic-ischemic injury): significantly decreased

Compound: CC(=O)O[C@H]1C(=O)[C@@]2(C)[C@H]([C@H](OC(=O)c3ccccc3)[C@]3(O)C[C@H](OC(=O)[C@H](O)[C@@H](NC(=O)c4ccccc4)c4ccccc4)C(C)=C1C3(C)C)[C@]1(OC(C)=O)CO[C@@H]1C[C@@H]2O [paclitaxel]
- inflammation related cytokines (inflammatory cytokines; paclitaxel 40 mg/kg cumulative alone): up-regulated
- macrophage-derived chemokine [MDC/CCL22] level (inflammatory cytokines): Lower levels
- macrophage-derived chemokine [MDC/CCL22] level (inflammatory cytokines; listed as Paclitaxel): decrease

Compound: epigallocatechin-3-gallate [EGCG]
- adverse events or toxicity [3]: no adverse events or toxicity
- genotoxicity and short term toxicity [4]: no genotoxic or short term toxicity
